The text below walks through data of US20250249110A1, “ANTIMICROBIAL PEPTIDE DERIVATIVE AND USE THEREOF” (SICHUAN UNIVERSITY, priority 2016, published 2025).

The test system of data set [1] is Staphylococcus aureus 33591. The data set is described as follows: Intra-abdominally infected mouse model. It is filed as in vivo. As to conditions: intravenous administration; DP7-C 1 mg/kg, VAN 20 mg/kg; vs NS group, p<0.01. The method, then: The anti-infection activity of DP7-C is determined by the intra-abdominally infected models. […]
The experimental steps are as follows: • (1) Activate Staphylococcus aureus 33591 with MHB the day before the experiment, wash the activated strains twice with normal saline on the day of the experiment, and determine the concentration of bacterial liquid for later use. • (2) To establish an abdominally infected mouse model, intraperitoneally inject the bacterial solution of 1.5×10^8 cfu/0.5 mL into each mouse. • (3) Intravenously inject the drug by group after one hour of infection, 0.1 mL/mouse. • (4) 24 h later, intraperitoneally inject 5 mL of normal saline into the mouse, gently massage the abdomen, kill the mouse and disinfect with 75% alcohol. After 5 min, scissor the abdominal cavity epithelium, make a small opening in the abdominal cavity, draw ascites as much as possible from the opening with a 1 ml syringe, and then transfer to a sterile EP tube for mixing. • (5) Dilute with normal saline at a dilution of, for example, 10×, 100×, 1000× and 10000×; take three bacterial solutions with suitable concentrations, 20 μL each, coat the MHA plate and incubate in a bacteria incubator overnight. • (6) Select a plate with 20-200 colonies and convert and calculate the amount of bacteria per milliliter in 5 milliliters of ascites.

Data set [2] relates to red blood cells. The data set is described as follows: Hemolysis test in vitro. The format is cell-based, human (healthy volunteers). Conditions: FIG. 5B. How it is done: In the hemolysis test, DP7 and DP7-C at the same concentration were detected for the hemolysis of red blood cells. • 1. Take the blood of healthy volunteers and put into an anticoagulant tube and gently mix. • 2. Take out the anticoagulant, add isometric physiological saline, mix slowly and evenly, centrifuge at 400×g for 10 min, and discard the supernatant. • 3. Slowly mix the red blood cells and wash with PBS, centrifuge at 400×g for 10 min, discard the supernatant, and wash the cell precipitate with PBS for three times. • 4. Dilute with PBS to obtain 20% (v/v) red blood cell solution, which can be used immediately or stored at 4° C. for about 2 weeks (without hemolysis). • 5. Dilute the drug into a series of concentration gradients with PBS, add 100 μL of drug into a 96-well plate, take 100 μL of 2% Twain 20 as the positive control, add 100 μL of PBS to the negative control. Repeat the process 3 times for each concentration of drug. • 6. Dilute 20% (v/v) of red blood cell solution with PBS according to the volume ratio of 1:20, mix evenly and add to a 96-well plate, with the drug concentration of 100, 200, 400, 600, 800, 1000, 1200, 1600 μg/mL respectively, and incubate at 37° C. for 1 h. • 7. Incubate the mixture of drugs and red blood cells, centrifuge at 900×g for 10 min, add 160 μL of the supernatant to a new 96-well plate, and read the absorbance value at OD 450 nm. • 8. According to the absorbance value of A450, calculate the percentage of hemolysis corresponding to each concentration of drugs.
The calculation formula of the percentage of hemolysis is: […]

A further data set concerns staphylococcus aureus. Conditions: background statement; cited from earlier work.
Data set [3] concerns red blood cells. As to conditions: cited from earlier work.

Where no end group is shown, it is not given here.

Turning to `CN[C@H](CC(C)C)C(=O)N[C@H]1C(=O)N[C@@H](CC(N)=O)C(=O)N[C@H]2C(=O)N[C@H]3C(=O)N[C@H](C(=O)N[C@H](C(=O)O)c4cc(O)cc(O)c4-c4cc3ccc4O)[C@H](O)c3ccc(c(Cl)c3)Oc3cc2cc(c3O[C@@H]2O[C@H](CO)[C@@H](O)[C@H](O)[C@H]2O[C@H]2C[C@](C)(N)[C@H](O)[C@H](C)O2)Oc2ccc(cc2Cl)[C@H]1O` [VAN, Vancomycin, reference compound], in data set [1], the “average colony forming unit (CFU) of Staphylococcus aureus” value was “significantly lower than those in NS group”.

For “VQWRIRVAVIRK-NH2 [DP7, VQWRIRVAVIRK-NH2]”, in the data set with red blood cells [2], the “appearance of hemolysis test” value is “red blood cells are lysed”. The “therapeutic effect in vivo” value with staphylococcus aureus was “very good therapeutic effect”. For the same compound, the lethality result in the data set on red blood cells [3] (high concentration, intravenous injection) is on record as “kill mice”. Besides, in the data set with red blood cells [3] (mouse, in vivo, iv), the “hemolysis of red blood cells” value was “cause hemolysis of red blood cells”.
